Broadly, the IC50 is the concentration at which inhibition is half-maximal.

This is an account of results in US20090209577A1, “Novel Triazolopyridine Compounds” (PFIZER INC., priority 2004, published 2009).

Counter-ions that a name gives are not always drawn. Where only a bound is given, the exact number is not on record here.

T1 sequence (Q16539 whole entry): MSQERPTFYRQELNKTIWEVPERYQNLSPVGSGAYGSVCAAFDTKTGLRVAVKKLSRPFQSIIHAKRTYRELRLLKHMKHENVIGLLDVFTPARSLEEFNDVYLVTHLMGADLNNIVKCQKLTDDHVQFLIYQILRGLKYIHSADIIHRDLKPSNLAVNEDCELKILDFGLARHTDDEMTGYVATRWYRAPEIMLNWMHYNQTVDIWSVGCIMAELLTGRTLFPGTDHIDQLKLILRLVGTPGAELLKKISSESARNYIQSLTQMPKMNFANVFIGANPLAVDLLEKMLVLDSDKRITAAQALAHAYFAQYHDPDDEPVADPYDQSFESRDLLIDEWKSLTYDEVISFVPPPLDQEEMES

The test has as its target T1, human p38 kinase alpha (Homo sapiens, UniProt Q16539).
T1 construct: The coding region of the human p38a cDNA was obtained by PCR-amplification from RNA isolated from the human monocyte cell line THP.1; made in house; host or cells: E. coli DH10B
Nature of the test: p38 kinase in vitro assay (PHAS-I / 32P-ATP format or EGFRP / 33P-ATP format). As to conditions: activated human p38 kinase alpha, 50 μM unlabeled ATP; two assay formats, table does not say which. The format is biochemical. The procedure:
The ability of compounds to inhibit human p38 kinase alpha was evaluated using two in vitro assay methods. In the first method, activated human p38 kinase alpha phosphorylates a biotinylated substrate, PHAS-I (phosphorylated heat and acid stable protein-insulin inducible), in the presence of gamma ^32P-ATP (^32P-ATP). PHAS-I was biotinylated prior to the assay and provides a means of capturing the substrate, which is phosphorylated during the assay. p38 Kinase was activated by MKK6. Compounds were tested in 10 fold serial dilutions over the range of 100 μM to 0.001 μM using 1% DMSO. Each concentration of inhibitor was tested in triplicate.
All reactions were carried out in 96 well polypropylene plates. Each reaction well contained 25 mM HEPES pH 7.5, 10 mM magnesium acetate and 50 μM unlabeled ATP. Activation of p38 was required to achieve sufficient signal in the assay. Biotinylated PHAS-1 was used at 1-2 μg per 50 μl reaction volume, with a final concentration of 1.5 μM. Activated human p38 kinase alpha was used at 1 μg per 50 μl reaction volume representing a final concentration of 0.3 μM. Gamma ^32P-ATP was used to follow the phosphorylation of PHAS-1. ^32P-ATP has a specific activity of 3000 Ci/mmol and was used at 1.2 μCi per 50 μl reaction volume. The reaction proceeded either for one hour or overnight at 30° C.
Following incubation, 20 μl of reaction mixture was transferred to a high capacity streptavidin coated filter plate (SAM-streptavidin-matrix, Promega) prewetted with phosphate buffered saline. The transferred reaction mix was allowed to contact the streptavidin membrane of the Promega plate for 1-2 minutes. Following capture of biotinylated PHAS-1 with ^32P incorporated, each well was washed to remove unincorporated ^32P-ATP three times with 2M NaCl, three washes of 2M NaCl with 1% phosphoric, three washes of distilled water and finally a single wash of 95% ethanol. Filter plates were air-dried and 20 μl of scintillant was added. The plates were sealed and counted.
A second assay format was also employed that is based on p38 kinase alpha induced phosphorylation of EGFRP (epidermal growth factor receptor peptide, a 21 mer) in the presence ^33P-ATP. Compounds were tested in 10 fold serial dilutions over the range of 100 μM to 0.001 μM in 1% DMSO. Each concentration of inhibitor was tested in triplicate. Compounds were evaluated in 50 μl reaction volumes in the presence of 25 mM Hepes pH 7.5, 10 mM magnesium acetate, 4% glycerol, 0.4% bovine serum albumin, 0.4 mM DTT, 50 μM unlabeled ATP, 25 μg EGFRP (200 μM), and 0.05 μCi ^33P-ATP. Reactions were initiated by addition of 0.09 μg of activated, purified human GST-p38 kinase alpha. Activation was carried out using GST-MKK6 (5:1, p38:MKK6) for one hour at 30° C. in the presence of 50 μM ATP. Following incubation for 60 minutes at room temperature, the reaction was stopped by addition of 150 μl of AG 1×8 resin in 900 mM sodium formate buffer, pH 3.0 (1 volume resin to 2 volumes buffer). The mixture was mixed three times with pipetting and the resin was allowed to settle. A total of 50 μl of clarified solution head volume was transferred from the reaction wells to Microlite-2 plates. 150 μl of Microscint 40 was then added to each well of the Microlite plate, and the plate was sealed, mixed, and counted.
The above protocol assays were used to determine the IC50 values for compounds in Examples 1-71 above.
`CNC(=O)c1ccc(C)c(-c2nnc3ccc(Sc4ccc(F)cc4F)cn23)c1` [Example 49, 3-{6-[(2,4-difluorophenyl)thio][1,2,4]triazolo[4,3-a]pyridin-3-yl}-N,4-dimethylbenzamide] had an IC50 of 39.9 nM.
In turn, `CC(C)c1nnc2ccc(Sc3ccc(Br)cc3C(F)(F)F)cn12` [Example 51, 6-{[4-bromo-2-(trifluoromethyl)phenyl]thio}-3-isopropyl[1,2,4]triazolo[4,3-a]pyridine hydrochloride] came in with an IC50 of more than 100000 nM.
Consider `CC(C)c1nnc2ccc(Sc3ccc(F)cc3C(F)(F)F)cn12` [Example 53, 6-{[4-fluoro-2-(trifluoromethyl)phenyl]thio}-3-isopropyl[1,2,4]triazolo[4,3-a]pyridine hydrochloride], for which the IC50 amounted to 50500 nM.
In turn, `CC(C)c1nnc2ccc(Sc3c(Cl)cc(Cl)cc3Cl)cn12` [Example 55, 3-isopropyl-6-[(2,4,6-trichlorophenyl)thio][1,2,4]triazolo[4,3-a]pyridine hydrochloride] yielded an IC50 of 8240 nM.
Take `C=Cc1ccc2nnc(C(C)C)n2c1` [Example 56, 3-isopropyl-6-vinyl[1,2,4]triazolo[4,3-a]pyridine]: the IC50 is more than 100000 nM.
Consider `C=Cc1ccc(-c2nnc3ccc(Sc4ccc(F)cc4F)cn23)cc1` [Example 57, 6-[(2,4-difluorophenyl)thio]-3-(4-vinylphenyl)[1,2,4]triazolo[4,3-a]pyridine], for which the IC50 stood at 181 nM.
In turn, `COC(=O)c1cccc(-c2nnc3ccc(Cc4ccc(F)cc4F)cn23)c1` [Example 58, methyl 3-[6-(2,4-difluorobenzyl)[1,2,4]triazolo[4,3-a]pyridin-3-yl]benzoate] gave an IC50 of 141 nM.
Take `O=C(O)c1ccc(-c2nnc3ccc(Cc4ccc(F)cc4F)cn23)cc1` [Example 59, 4-[6-(2,4-difluorobenzyl)[1,2,4]triazolo[4,3-a]pyridin-3-yl]benzoic acid]: the IC50 was more than 100000 nM.
On to `CC(C)c1nnc2ccc([S+]([O-])c3ccc(F)cc3F)cn12` (stereo not drawn) [Example 60, 6-[(2,4-difluorophenyl)sulfinyl]-3-isopropyl[1,2,4]triazolo[4,3-a]pyridine], for which the IC50 worked out at 9680 nM.
Then `CC(C)c1nnc2ccc(S(=O)(=O)c3ccc(F)cc3F)cn12` [Example 61, 6-[(2,4-difluorophenyl)sulfonyl]-3-isopropyl[1,2,4]triazolo[4,3-a]pyridine], with more than 100000 nM; and `OCC(O)c1ccc(-c2nnc3ccc(Cc4ccc(F)cc4F)cn23)cc1` (stereo not drawn) [Example 62, 1-{4-[6-(2,4-difluorobenzyl)[1,2,4]triazolo[4,3-a]pyridin-3-yl]phenyl}ethane-1,2-diol trifluoroacetate], with 443 nM.
`CC(C)(C)c1nnc2ccc(Sc3c(Cl)cccc3Cl)cn12` [Example 63, 3-tert-butyl-6-[(2,6-dichlorophenyl)thio][1,2,4]triazolo[4,3-a]pyridine] had an IC50 of 54.6 nM.
As to `COC(=O)c1cccc(-c2nnc3ccc(Sc4ccc(F)cc4F)cn23)c1` [Example 64A, methyl 3-{6-[(2,4-difluorophenyl)thio][1,2,4]triazolo[4,3-a]pyridin-3-yl}benzoate], 181 nM corresponded to half-maximal inhibition (IC50).
In the case of `O=C(O)c1cccc(-c2nnc3ccc(Sc4ccc(F)cc4F)cn23)c1` [Example 64B, 3-{6-[(2,4-difluorophenyl)thio][1,2,4]triazolo[4,3-a]pyridin-3-yl}benzoic acid], the midpoint of inhibition, the IC50, lay at 7420 nM.
As for `COC(=O)c1cccc(-c2nnc3ccc(C(O)c4ccc(F)cc4F)cn23)c1` (stereo not drawn) [Example 65, methyl 3-{6-[(2,4-difluorophenyl)(hydroxy)methyl][1,2,4]triazolo[4,3-a]pyridin-3-yl}benzoate], inhibition was half-maximal at 1130 nM (IC50).
`O=C(O)c1cccc(-c2nnc3ccc(C(=O)c4ccc(F)cc4F)cn23)c1` [Example 66, 3-[6-(2,4-difluorobenzoyl)[1,2,4]triazolo[4,3-a]pyridin-3-yl]benzoic acid]: the IC50 was more than 100000 nM.
Under `CC(C)c1nnc2ccc(Cc3ccccc3F)cn12` [Example 67, 6-(2-fluorobenzyl)-3-isopropyl[1,2,4]triazolo[4,3-a]pyridine] stands 699 nM; under `CC(C)c1nnc2ccc(Cc3cccc(F)c3)cn12` [Example 68, 6-(3-fluorobenzyl)-3-isopropyl[1,2,4]triazolo[4,3-a]pyridine], 5260 nM.
Under `CC(C)c1nnc2ccc(Cc3ccc(F)cc3)cn12` [Example 69, 6-(4-fluorobenzyl)-3-isopropyl[1,2,4]triazolo[4,3-a]pyridine] stands 2500 nM; under `CC(C)(C)c1nnc2ccc(Cc3ccc(F)cc3F)cn12` [Example 70, 3-tert-butyl-6-(2,4-difluorobenzyl)[1,2,4]triazolo[4,3-a]pyridine], 122 nM; under `CC(C)C(=O)c1ccc2nnc(C(C)C)n2c1` [Example 71, 1-(3-isopropyl[1,2,4]triazolo[4,3-a]pyridin-6-yl)-2-methylpropan-1-one], 99100 nM.
